In publication PMC5457276, “Influence of Amphibian Antimicrobial Peptides and Short Lipopeptides on Bacterial Biofilms Formed on Contact Lenses” (Materials, 2016):
Where two headings read alike, the source gives them in different places. Where a SMILES comes first, the peptide text is derived from it. Where no end group is shown, it is not given here. The star is where a group is joined. Palmitoyl = CCCCCCCCCCCCCCCC(=O)*

Key:
[1] = tested on: Escherichia coli ATCC 25922 biofilm on contact lenses; format: cell-based; conditions: for Concentration eradicating E. coli biofilms (MBEC): ATCC 25922, 24 h; for Minimum biofilm eradication concentration (reduction of resazurin ≤10% ± 0.5%): E. coli, triplicate
Procedure: (§1) All selected strains were obtained from the Polish Collection of Microorganisms (Polish Academy of Science, Wroclaw, Poland). Four Gram-positive and three Gram-negative strains linked with CL-related infections lenses were tested (Table 5). The microorganisms were cultured in a Mueller Hinton Broth II (MHB, Biocorp, Warsaw, Poland) overnight, at 37 °C.
(§2) The CL and CL solutions used are commercially available. One-day CL (1-Day Acuvue Moist) containing Etafilcon A were obtained from Johnson and Johnson Vision Care (Jacksonsville, FL, USA). Four popular CL solutions were also tested (Table 6).
(§3) Biofilms of strains related with ocular infections were cultured on CL placed in polystyrene 24-well plates (Orange Scientific, Braine-l’Alleud, Belgium). Biomaterials were incubated at 37 °C in bacterial suspension in the Mueller Hinton Broth II (Biocorp, Warsaw, Poland) at initial inoculums of ca. 5 × 10^5 CFU/mL. After 24 h of incubation all of the CL were rinsed three times with a sterile phosphate buffer (AppliChem, Darmstadt, Germany). The lenses were then transferred into new wells with fresh MHB II. One-day biofilms were exposed to a pre-determined range of peptides concentration. […] Anti-biofilm activity of selected peptides was visualized using a cell-viability reagent, Resazurin (Sigma Aldrich, St. Louis, MO, USA). Upon contact with living cells the dye is metabolized by bacterial dehydrogenases resulting in the reduction of the blue resazurin to a pink resorufin. Positive controls contained CL immersed in bacterial suspensions without antimicrobials, while CL in a sterile culture medium served as negative controls. The minimum biofilm eradication concentration (MBEC) was read after a one-hour incubation with Resazurin (final concentration per sample = 0.005%) MBEC was determined as the lowest concentration at which the reduction of resazurin was lower or equal (10% ± 0.5%) as compared to positive (100%) and negative (0%) controls. All experiments were performed in triplicate.

[2] = tested on: Pseudomonas aeruginosa ATCC 9027 biofilm on contact lenses; format: cell-based; conditions: for Concentration eliminating P. aeruginosa from the lens surface (MBEC): ATCC 9027, 24 h; for Minimum biofilm eradication concentration (reduction of resazurin ≤10% ± 0.5%): P. aeruginosa, triplicate
Procedure: as §1, §2, §3

[3] = tested on: biofilms formed by Gram-positive bacteria on contact lenses; assay: Biofilm assay on contact lenses (MBEC), summary over Gram-positive strains; format: cell-based
Procedure: as §1, §2, §3

[4] = tested on: Staphylococcus epidermidis ATCC 14990 biofilm on contact lenses; assay: Biofilm assay on contact lenses (MBEC, resazurin); format: cell-based; conditions: S. epidermidis, triplicate
Procedure: as §1, §2, §3

[5] = tested on: Streptococcus pyogenes PCM 465 biofilm on contact lenses; assay: Biofilm assay on contact lenses (MBEC, resazurin); format: cell-based; conditions: S. pyogenes, triplicate
Procedure: as §1, §2, §3

[6] = tested on: Streptococcus pneumoniae ATCC 49619 biofilm on contact lenses; assay: Biofilm assay on contact lenses (MBEC, resazurin); format: cell-based; conditions: S. pneumoniae, triplicate
Procedure: as §1, §2, §3

[7] = tested on: Staphylococcus aureus ATCC 25923 biofilm on contact lenses; assay: Biofilm assay on contact lenses (MBEC, resazurin); format: cell-based; conditions: S. aureus, triplicate
Procedure: as §1, §2, §3

HaCaT cells = conditions: cited from earlier work
From the text: Our data reveal that AMPs might be promising antibacterial additives to CL solutions. However there are certain limitations and issues which need to be considered. The long-time stability of compounds in a water solution needs to be examined, but first of all the evaluation of toxicity towards human eye cells needs to be carried out. In the previous study tested amphibian peptides turned out to be safe towards HaCaT cells at their microbiologically-active concentrations. […] Considering the potenti ...

[8] = tested on: Streptococcus pyogenes PCM 465; format: cell-based; conditions: S. pyogenes; same MIC in μM (in brackets); broth microdilution, MHB II, overnight at 37 °C, triplicate
Procedure: as §1
(§4) Peptide susceptibility tests on the reference bacterial strains were performed with the following procedures recommended by the Clinical and Laboratory Standard Institute (CLSI). The activity of five peptides was tested on the Mueller Hinton Broth II (Biocorp, Warsaw, Poland) using broth microdilution method on polystyrene 96-well plates (Kartell, Noviglio, Italy). […] The plates were incubated overnight at 37 °C. MIC was assumed as the lowest concentration at which bacterial growth was no longer visible. All experiments were performed in triplicate.

[9] = tested on: Streptococcus pneumoniae ATCC 49619; format: cell-based; conditions: S. pneumoniae; same MIC in μM (in brackets); broth microdilution, MHB II, overnight at 37 °C, triplicate
Procedure: as §1, §4

[10] = tested on: Pseudomonas aeruginosa ATCC 9027; format: cell-based; conditions: P. aeruginosa; same MIC in μM (in brackets); broth microdilution, MHB II, overnight at 37 °C, triplicate
Procedure: as §1, §4

[11] = tested on: Staphylococcus epidermidis ATCC 14990; format: cell-based; conditions: S. epidermidis; same MIC in μM (in brackets); broth microdilution, MHB II, overnight at 37 °C, triplicate
Procedure: as §1, §4

[12] = tested on: Escherichia coli ATCC 25922; format: cell-based; conditions: E. coli; same MIC in μM (in brackets); broth microdilution, MHB II, overnight at 37 °C, triplicate
Procedure: as §1, §4

[13] = tested on: Staphylococcus aureus ATCC 25923; format: cell-based; conditions: S. aureus; same MIC in μM (in brackets); broth microdilution, MHB II, overnight at 37 °C, triplicate
Procedure: as §1, §4

[14] = tested on: planktonic bacteria, all tested strains; assay: Minimum inhibitory concentration, summary over all tested strains; format: cell-based; conditions: summary of Table 1
Procedure: as §1, §4

[15] = 25 °C, one-day biofilm on contact lens (Etafilcon A), 24 h exposure in MHB II, resazurin read-out
[16] = 25 °C, same MBEC in μM (in brackets), biofilm on contact lens, 24 h exposure
[17] = 37 °C, one-day biofilm on contact lens (Etafilcon A), 24 h exposure in MHB II, resazurin read-out
[18] = 37 °C, same MBEC in μM (in brackets), biofilm on contact lens, 24 h exposure

Compound | Concentration eradicating E. coli biofilms (MBEC) [1] [µg/mL] | Concentration eliminating P. aeruginosa from the lens surface (MBEC) [2] [µg/mL] | Minimum biofilm eradication concentration (reduction of resazurin ≤10% ± 0.5%) [4, 15] [µg/mL] | Minimum biofilm eradication concentration (reduction of resazurin ≤10% ± 0.5%) [4, 16] | Minimum biofilm eradication concentration (reduction of resazurin ≤10% ± 0.5%) [4, 17] [µg/mL] | Minimum biofilm eradication concentration (reduction of resazurin ≤10% ± 0.5%) [4, 18] | Minimum biofilm eradication concentration (reduction of resazurin ≤10% ± 0.5%) [5, 15] [µg/mL] | Minimum biofilm eradication concentration (reduction of resazurin ≤10% ± 0.5%) [5, 16] | Minimum biofilm eradication concentration (reduction of resazurin ≤10% ± 0.5%) [5, 17] [µg/mL] | Minimum biofilm eradication concentration (reduction of resazurin ≤10% ± 0.5%) [5, 18] | Minimum biofilm eradication concentration (reduction of resazurin ≤10% ± 0.5%) [6, 15] [µg/mL] | Minimum biofilm eradication concentration (reduction of resazurin ≤10% ± 0.5%) [6, 16] | Minimum biofilm eradication concentration (reduction of resazurin ≤10% ± 0.5%) [6, 17] [µg/mL] | Minimum biofilm eradication concentration (reduction of resazurin ≤10% ± 0.5%) [6, 18] | Minimum biofilm eradication concentration (reduction of resazurin ≤10% ± 0.5%) [7, 15] [µg/mL] | Minimum biofilm eradication concentration (reduction of resazurin ≤10% ± 0.5%) [7, 16] | Minimum biofilm eradication concentration (reduction of resazurin ≤10% ± 0.5%) [7, 17] [µg/mL] | Minimum biofilm eradication concentration (reduction of resazurin ≤10% ± 0.5%) [7, 18] | Minimum biofilm eradication concentration (reduction of resazurin ≤10% ± 0.5%) [1, 15] [µg/mL] | Minimum biofilm eradication concentration (reduction of resazurin ≤10% ± 0.5%) [1, 16] | further results
GLFDVIKKVASVIGGL-NH2 [Citropin 1.1, reference compound] | 128 to 256 | 512 |  |  |  |  |  |  |  |  |  |  |  |  |  |  |  |  |  |  | MBEC values, range over Gram-positive strains ([3]; both temperatures (25 °C and 37 °C)): 16 to 64 µg/mL
CCCCCCCCCCCCCCCC(=O)N[C@@H](CCCCN)C(=O)N[C@@H](CCCCN)C(N)=O [Palm-KK-NH2] | 256 |  | 32 | (43.3) μM | 32 | (43.3) μM | 32 | (43.3) μM | 512 | (693.0) μM | 64 | (86.6) μM | 64 | (86.6) μM | 32 | (43.3) μM | 64 | (86.6) μM | 256 | (346.5) μM | Minimum biofilm eradication concentration (reduction of resazurin ≤10% ± 0.5%) [1, 17]: 256 µg/mL; Minimum biofilm eradication concentration (reduction of resazurin ≤10% ± 0.5%) [1, 18]: (346.5) μM; Minimum biofilm eradication concentration (reduction of resazurin ≤10% ± 0.5%) [2, 15]: >512 µg/mL; Minimum biofilm eradication concentration (reduction of resazurin ≤10% ± 0.5%) [2, 16]: (>693.0) μM; Minimum biofilm eradication concentration (reduction of resazurin ≤10% ± 0.5%) [2, 17]: >512 µg/mL; Minimum biofilm eradication concentration (reduction of resazurin ≤10% ± 0.5%) [2, 18]: (>693.0) μM; Toxicity towards HaCaT cells / human keratinocytes (in words) (HaCaT cells): high toxicity; Concentrations eradicating biofilms formed by Gram-positive bacteria (MBEC) ([3]; at 37 °C): 32 to 512 µg/mL; Concentrations eradicating biofilms formed by Gram-positive bacteria (MBEC) ([3]; printed "below 25 °C"): 32 to 64 µg/mL; Minimum inhibitory concentration [8]: (21.7) μM; Minimum inhibitory concentration [9]: (10.8) μM; Minimum inhibitory concentration [10]: (21.7) μM; Minimum inhibitory concentration [11]: (5.4) μM; Minimum inhibitory concentration [12]: (10.8) μM; Minimum inhibitory concentration [13]: (10.8) μM
GIGKFLKKAKKFGKAFVKILKK-NH2 [Pexiganan] |  |  |  |  |  |  |  |  |  |  |  |  |  |  |  |  |  |  |  |  | Concentrations inhibiting bacterial growth (MIC), range over all tested strains [14]: 1 to 8 µg/mL
FLPLIGRVLSGIL-NH2 [Temporin A, reference compound] |  | 512 |  |  |  |  |  |  |  |  |  |  |  |  |  |  |  |  |  |  | 
CCCCCCCCCCCCCCCC(=O)N[C@@H](CCCNC(=N)N)C(=O)N[C@@H](CCCNC(=N)N)C(N)=O [Palm-RR-NH2] (Palmitoyl-Arg-Arg-NH2) |  |  | 64 | (80.5) μM | 32 | (40.3) μM | 128 | (161.0) μM | >512 | (>644.1) μM | 64 | (80.5) μM | 32 | (40.3) μM | 128 | (161.0) μM | 256 | (322.1) μM | 256 | (322.1) μM | Minimum biofilm eradication concentration (reduction of resazurin ≤10% ± 0.5%) [1, 17]: 512 µg/mL; Minimum biofilm eradication concentration (reduction of resazurin ≤10% ± 0.5%) [1, 18]: (644.1) μM; Minimum biofilm eradication concentration (reduction of resazurin ≤10% ± 0.5%) [2, 15]: >512 µg/mL; Minimum biofilm eradication concentration (reduction of resazurin ≤10% ± 0.5%) [2, 16]: (>644.1) μM; Minimum biofilm eradication concentration (reduction of resazurin ≤10% ± 0.5%) [2, 17]: >512 µg/mL; Minimum biofilm eradication concentration (reduction of resazurin ≤10% ± 0.5%) [2, 18]: (>644.1) μM; Minimum inhibitory concentration [8]: (20.1) μM; Minimum inhibitory concentration [9]: (5.0) μM; Minimum inhibitory concentration [10]: (40.3) μM; Minimum inhibitory concentration [11]: (5.0) μM; Minimum inhibitory concentration [12]: (20.1) μM; Minimum inhibitory concentration [13]: (10.1) μM
